Laboratory results reported in ChEMBL document CHEMBL3397033, “Bioactive benzofuran derivatives: moracins A-Z in medicinal chemistry” (Eur J Med Chem, 2015).
In brackets after ≈: the same amount, converted by molar mass.

Key:
[1] = tested on: Escherichia coli; assay: Antimicrobial activity against Escherichia coli; format: functional
[2] = tested on: Enterococcus faecalis; assay: Microbicidal activity against Streptococcus faecalis by liquid microdilution assay; format: functional
[3] = tested on: Pseudomonas aeruginosa; assay: Antimicrobial activity against Pseudomonas aeruginosa; format: functional
[4] = tested on: Klebsiella pneumoniae; assay: Microbicidal activity against Klebsiella pneumoniae by liquid microdilution assay; format: functional
[5] = Antifungal activity against Fusarium roseum; format: functional
[6] = tested on: Morus alba; assay: Antioxidant activity in mulberry leaves assessed as UV-stress-induced free radical scavenging activity measured as inhibition of blue formazan at 100 uM; format: functional
[7] = tested on: Salmonella typhi; assay: Microbicidal activity against Salmonella typhi by liquid microdilution assay; format: functional, Salmonella enterica subsp. enterica serovar Typhi; conditions: Salmonella enterica
[8] = tested on: Pseudomonas aeruginosa; assay: Microbicidal activity against Pseudomonas aeruginosa by liquid microdilution assay; format: functional
[9] = tested on: Shigella dysenteriae; assay: Antimicrobial activity against Shigella dysenteriae by liquid microdilution assay; format: functional
[10] = tested on: Bacillus cereus; assay: Microbicidal activity against Bacillus cereus by liquid microdilution assay; format: functional
[11] = tested on: Citrobacter freundii; assay: Microbicidal activity against Citrobacter freundii by liquid microdilution assay; format: functional
[12] = tested on: RAW264.7; assay: Antiinflammatory activity against mouse RAW264.7 cells assessed as reduction of LPS-induced NO production; format: functional, cell-based
[13] = Inhibition of alpha-glucosidase (unknown origin); set-up: species or system Homo sapiens
[14] = tested on: Candida albicans; assay: Antimicrobial activity against Candida albicans by liquid microdilution assay; format: functional
[15] = target: Enoyl-[acyl-carrier-protein] reductase [NADPH] FabI (Staphylococcus aureus, UniProt Q6GI75); assay: Inhibition of Staphylococcus aureus FabI-mediated trans-2-octenoyl N-acetylcysteamine (t-o-NAC thioester) substrate reduction assessed as decrease in NADPH […]
Enoyl-[acyl-carrier-protein] reductase [NADPH] FabI, sequence (Q6GI75 whole entry): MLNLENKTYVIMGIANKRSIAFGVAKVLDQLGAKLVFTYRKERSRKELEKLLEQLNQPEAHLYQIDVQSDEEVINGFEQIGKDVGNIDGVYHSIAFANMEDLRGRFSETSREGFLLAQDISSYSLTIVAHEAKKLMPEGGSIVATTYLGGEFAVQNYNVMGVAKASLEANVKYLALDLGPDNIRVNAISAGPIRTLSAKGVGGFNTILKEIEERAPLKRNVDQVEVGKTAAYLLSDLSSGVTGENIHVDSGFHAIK

[16] = tested on: Micrococcus luteus; assay: Antimicrobial activity against Micrococcus luteus; format: functional
[17] = Antiinflammatory activity against rat PMN assessed as inhibition of PAF-induced beta-glucuronidase release relative to control; format: functional
[18] = tested on: Citrobacter freundii; assay: Antimicrobial activity against Citrobacter freundii by liquid microdilution assay; format: functional
[19] = tested on: Bacillus cereus; assay: Antimicrobial activity against Bacillus cereus by liquid microdilution assay; format: functional
[20] = Antifungal activity against Fusarium solani f. sp. mori; format: functional
[21] = Antioxidant activity in liver (unknown origin) assessed as inhibition of Fe2+/cysteine system-induced lipid peroxidation; format: functional, tissue-based; conditions: dose or concentration not given here
[22] = tested on: Escherichia coli; assay: Microbicidal activity against Escherichia coli by liquid microdilution assay; format: functional
[23] = tested on: Microsporum audouinii; assay: Antimicrobial activity against Microsporum audouinii by liquid microdilution assay; format: functional
[24] = tested on: Rosellinia necatrix; assay: Antifungal activity against Rosellinia necatrix; format: functional
[25] = tested on: Microsporum audouinii; assay: Microbicidal activity against Microsporum audouinii by liquid microdilution assay; format: functional
[26] = tested on: Bacillus subtilis; assay: Antimicrobial activity against Bacillus subtilis; format: functional
[27] = tested on: Staphylococcus aureus; assay: Antimicrobial activity against Staphylococcus aureus by liquid microdilution assay; format: functional
[28] = tested on: Staphylococcus aureus; assay: Microbicidal activity against Staphylococcus aureus by liquid microdilution assay; format: functional
[29] = Antifungal activity against Fusarium lateritium f. sp. mori; format: functional
[30] = tested on: RAW264.7; assay: Antiinflammatory activity against mouse RAW264.7 cells assessed as reduction of IFNgamma-induced NO production; format: functional, cell-based
[31] = tested on: Staphylococcus aureus; assay: Inhibition of fatty acid biosynthesis in Staphylococcus aureus assessed as incorporation of [1-14C]acetate by scintillation counting analysis; format: functional, organism-based
[32] = Antifungal activity against Stigmina mori; format: functional
[33] = tested on: Candida albicans; assay: Microbicidal activity against Candida albicans by liquid microdilution assay; format: functional
[34] = tested on: Staphylococcus aureus; assay: Antimicrobial activity against Staphylococcus aureus RN4220 assessed as inhibition of cell growth by broth microdilution method; format: functional
[35] = tested on: Klebsiella pneumoniae; assay: Antimicrobial activity against Klebsiella pneumoniae by liquid microdilution assay; format: functional
[36] = Antifungal activity against Diaporthe nomurai; format: functional
[37] = tested on: Staphylococcus aureus; assay: Antimicrobial activity against methicillin-sensitive Staphylococcus aureus; format: functional
[38] = tested on: Salmonella typhi; assay: Antimicrobial activity against Salmonella typhi by liquid microdilution assay; format: functional, Salmonella enterica subsp. enterica serovar Typhi; conditions: Salmonella enterica
[39] = tested on: Pseudomonas aeruginosa; assay: Antimicrobial activity against Pseudomonas aeruginosa by liquid microdilution assay; format: functional
[40] = tested on: Klebsiella pneumoniae; assay: Antimicrobial activity against Klebsiella pneumoniae; format: functional
[41] = tested on: Enterococcus faecalis; assay: Antimicrobial activity against Streptococcus faecalis by liquid microdilution assay; format: functional
[42] = tested on: Staphylococcus aureus; assay: Antimicrobial activity against methicillin-resistant Staphylococcus aureus CCARM3167 assessed as inhibition of cell growth by broth microdilution method; format: functional
[43] = Antifungal activity against Cochliobolus miyabeanus; format: functional; conditions: Bipolaris oryzae
[44] = tested on: Shigella dysenteriae; assay: Microbicidal activity against Shigella dysenteriae by liquid microdilution assay; format: functional
[45] = tested on: Staphylococcus aureus; assay: Inhibition of protein biosynthesis in Staphylococcus aureus assessed as incorporation of [14C]leucine by scintillation counting analysis; format: functional, organism-based
[46] = tested on: Escherichia coli; assay: Antimicrobial activity against Escherichia coli by liquid microdilution assay; format: functional
[47] = tested on: Staphylococcus aureus; assay: Antimicrobial activity against methicillin-resistant Staphylococcus aureus; format: functional
[48] = tested on: Mus musculus; assay: Hypoglycemic activity in alloxan-induced diabetic mouse assessed as fasting blood glucose level at 10 mg/kg; format: functional
[49] = target: T1, Hypoxia-inducible factor 1-alpha (Homo sapiens, UniProt Q16665); assay: Inhibition of HIF-1alpha in human Hep3B cells cotransfected with pGL3-HRE-luciferase plasmid at > 50 uM after 24 hrs by dual-luciferase reporter assay; format: cell-based; conditions: hep 3b2
T1 sequence (Q16665 whole entry): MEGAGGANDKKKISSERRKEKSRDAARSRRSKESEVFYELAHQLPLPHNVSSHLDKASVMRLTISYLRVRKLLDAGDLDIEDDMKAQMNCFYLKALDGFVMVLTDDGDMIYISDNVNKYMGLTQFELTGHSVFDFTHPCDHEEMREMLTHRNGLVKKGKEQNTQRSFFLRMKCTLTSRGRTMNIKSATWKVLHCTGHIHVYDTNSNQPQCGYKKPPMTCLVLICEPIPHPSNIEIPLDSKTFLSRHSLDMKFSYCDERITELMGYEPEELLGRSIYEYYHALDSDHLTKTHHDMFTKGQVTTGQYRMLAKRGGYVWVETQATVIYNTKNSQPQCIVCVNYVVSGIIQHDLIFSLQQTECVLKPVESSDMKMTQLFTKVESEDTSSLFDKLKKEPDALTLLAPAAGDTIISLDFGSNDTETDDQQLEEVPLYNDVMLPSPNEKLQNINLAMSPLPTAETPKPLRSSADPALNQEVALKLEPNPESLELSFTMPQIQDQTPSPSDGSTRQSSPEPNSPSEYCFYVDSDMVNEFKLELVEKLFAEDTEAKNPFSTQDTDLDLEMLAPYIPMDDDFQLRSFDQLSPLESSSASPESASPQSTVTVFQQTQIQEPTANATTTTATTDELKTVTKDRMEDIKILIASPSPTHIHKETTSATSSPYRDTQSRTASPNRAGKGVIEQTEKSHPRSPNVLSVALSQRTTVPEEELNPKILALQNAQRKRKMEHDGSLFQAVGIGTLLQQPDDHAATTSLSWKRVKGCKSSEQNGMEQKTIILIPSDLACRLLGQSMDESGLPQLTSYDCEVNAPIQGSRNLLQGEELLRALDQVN

[50] = Cytotoxicity against human Hep3B cells assessed as cell viability after 24 hrs by MTT assay; format: cell-based, Hep 3B2
[51] = target: T1, Hypoxia-inducible factor 1-alpha; assay: Inhibition of HIF-1alpha in human Hep3B cells assessed as decrease in VEGF level at > 50 uM after 20 hrs by ELISA; format: cell-based; conditions: hep 3b2
[52] = tested on: Mus musculus; assay: Hypoglycemic activity in alloxan-induced diabetic mouse assessed as fasting blood glucose level at 50 mg/kg; format: functional
[53] = Cytotoxicity against human HCT8 cells after 96 hrs by MTT assay; format: functional, cell-based; conditions: HCT-8, 96 h
[54] = Cytotoxicity against human Bel7402 cells after 96 hrs by MTT assay; format: functional, cell-based; conditions: Bel-7402, 96 h
[55] = tested on: A549; assay: Cytotoxicity against human A549 cells after 96 hrs by MTT assay; format: functional, cell-based; conditions: A549, 96 h
[56] = tested on: A2780; assay: Cytotoxicity against human A2780 cells after 96 hrs by MTT assay; format: functional, cell-based; conditions: A2780, 96 h
[57] = Cytotoxicity against human BGC823 cells after 96 hrs by MTT assay; format: functional, cell-based; conditions: BGC-823, 96 h
[58] = target: Tyrosinase (Agaricus bisporus, UniProt O42713); assay: Inhibition of mushroom tyrosinase
Tyrosinase, sequence (O42713 whole entry): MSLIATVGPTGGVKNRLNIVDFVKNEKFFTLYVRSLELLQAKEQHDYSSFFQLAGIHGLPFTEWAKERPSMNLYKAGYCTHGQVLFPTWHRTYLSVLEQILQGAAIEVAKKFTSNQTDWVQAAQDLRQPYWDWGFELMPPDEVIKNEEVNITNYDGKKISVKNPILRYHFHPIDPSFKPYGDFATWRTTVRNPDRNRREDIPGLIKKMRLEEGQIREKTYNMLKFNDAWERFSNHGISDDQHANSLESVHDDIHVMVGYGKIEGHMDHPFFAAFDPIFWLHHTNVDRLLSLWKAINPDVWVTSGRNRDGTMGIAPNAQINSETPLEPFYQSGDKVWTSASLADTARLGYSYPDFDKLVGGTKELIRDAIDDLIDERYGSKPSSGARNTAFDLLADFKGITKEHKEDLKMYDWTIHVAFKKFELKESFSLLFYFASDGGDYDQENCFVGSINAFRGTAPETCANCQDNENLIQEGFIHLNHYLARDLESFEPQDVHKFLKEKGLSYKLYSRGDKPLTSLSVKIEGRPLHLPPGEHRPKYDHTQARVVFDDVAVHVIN

## CC(C)=CCc1c(O)cc(-c2cc3ccc(O)cc3o2)cc1O [MORACIN C]
[1]
  MIC: > 100 µg/mL
[2]
  MBC: 78 µg/mL (≈ 251 µM)
[3]
  MIC: > 100 µg/mL
[4]
  MBC: 625 µg/mL (≈ 2010 µM)
[5]
  MIC: 3.5 µg/mL (≈ 11.3 µM)
[6]
  inhibition: 64%
[7]
  MBC: 39 µg/mL (≈ 126 µM)
[8]
  MBC: 39 µg/mL (≈ 126 µM)
[9]
  MIC: 5 µg/mL (≈ 16.1 µM)
[10]
  MBC: 156 µg/mL (≈ 503 µM)
[11]
  MBC: 625 µg/mL (≈ 2010 µM)
[12]
  IC50: 8 µM
[13]
  IC50: 4.04 µM
[14]
  MIC: 68 µg/mL (≈ 219 µM)
[15]
  IC50: 83.8 µM
[16]
  MIC: 12.5 µg/mL (≈ 40.3 µM)
[17]
  inhibition (INH): 100%
[18]
  MIC: 156 µg/mL (≈ 503 µM)
[19]
  MIC: 78 µg/mL (≈ 251 µM)
[20]
  MIC: 224 µg/mL (≈ 722 µM)
[21]
  inhibition: 73%
[22]
  MBC: 78 µg/mL (≈ 251 µM)
[23]
  MIC: 78 µg/mL (≈ 251 µM)
[24]
  MIC: 3.5 µg/mL (≈ 11.3 µM)
[25]
  MFC: 312 µg/mL (≈ 1010 µM)
[26]
  MIC: 3.13 µg/mL (≈ 10.1 µM)
[27]
  MIC: 78 µg/mL (≈ 251 µM)
[28]
  MBC: 156 µg/mL (≈ 503 µM)
[29]
  MIC: 7 µg/mL (≈ 22.6 µM)
[30]
  IC50: 8 µM
[31]
  IC50: 74.8 µM
[32]
  MIC: 112 µg/mL (≈ 361 µM)
[33]
  MFC: 156 µg/mL (≈ 503 µM)
[34]
  MIC: 32 µg/mL (≈ 103 µM)
[35]
  MIC: 312 µg/mL (≈ 1010 µM)
[36]
  MIC: 14 µg/mL (≈ 45.1 µM)
[37]
  MIC: 6.25 µg/mL (≈ 20.1 µM)
[38]
  MIC: 10 µg/mL (≈ 32.2 µM)
[39]
  MIC: 10 µg/mL (≈ 32.2 µM)
[40]
  MIC: > 100 µg/mL
[41]
  MIC: 39 µg/mL (≈ 126 µM)
[42]
  MIC: 32 µg/mL (≈ 103 µM)
[43]
  MIC: 28 µg/mL (≈ 90.2 µM)
[44]
  MBC: 39 µg/mL (≈ 126 µM)
[45]
  IC50: 188 µM
[46]
  MIC: 39 µg/mL (≈ 126 µM)
[47]
  MIC: 12.5 µg/mL (≈ 40.3 µM)

## Oc1cc(O)cc(-c2cc3ccc(O)cc3o2)c1 [MORACIN M]
[1]
  MIC: > 100 µg/mL
[2]
  MBC: 156 µg/mL (≈ 644 µM)
[3]
  MIC: > 100 µg/mL
[4]
  MBC: 625 µg/mL (≈ 2580 µM)
[7]
  MBC: 156 µg/mL (≈ 644 µM)
[8]
  MBC: 625 µg/mL (≈ 2580 µM)
[9]
  MIC: 78 µg/mL (≈ 322 µM)
[48]
  Activity: 18.52 mmol/L
[16]
  MIC: 25 µg/mL (≈ 103 µM)
[17]
  inhibition (INH): 54%
[18]
  MIC: 312 µg/mL (≈ 1290 µM)
[22]
  MBC: 625 µg/mL (≈ 2580 µM)
[49]
  IC50: Not Active
[23]
  MIC: 78 µg/mL (≈ 322 µM)
[25]
  MFC: 312 µg/mL (≈ 1290 µM)
[26]
  MIC: 100 µg/mL (≈ 413 µM)
[50]
  IC50: > 30 µM
[51]
  IC50: Not Active
[52]
  Activity: 20.08 mmol/L
[35]
  MIC: 312 µg/mL (≈ 1290 µM)
[37]
  MIC: 12.5 µg/mL (≈ 51.6 µM)
[38]
  MIC: 78 µg/mL (≈ 322 µM)
[39]
  MIC: 156 µg/mL (≈ 644 µM)
[40]
  MIC: > 100 µg/mL
[41]
  MIC: 78 µg/mL (≈ 322 µM)
[44]
  MBC: 156 µg/mL (≈ 644 µM)
[46]
  MIC: 78 µg/mL (≈ 322 µM)
[47]
  MIC: 25 µg/mL (≈ 103 µM)

## CC(C)=CCc1cc2cc(-c3cc(O)cc(O)c3)oc2cc1O [MORACIN N]
[1]
  MIC: > 100 µg/mL
[3]
  MIC: > 100 µg/mL
[6]
  inhibition: 76%
[53]
  IC50: > 10 µg/mL
[13]
  IC50: 2.76 µM
[54]
  IC50: > 10 µg/mL
[55]
  IC50: > 10 µg/mL
[56]
  IC50: > 10 µg/mL
[57]
  IC50: > 10 µg/mL
[40]
  MIC: > 100 µg/mL
[58]
  IC50: 0.924 µM

## CC1(C)C=Cc2c(O)cc(-c3cc4ccc(O)cc4o3)cc2O1 [MORACIN D]
[1]
  MIC: > 100 µg/mL
[3]
  MIC: > 100 µg/mL
[5]
  MIC: 7 µg/mL (≈ 22.7 µM)
[12]
  IC50: 18 µM
[13]
  IC50: 2.54 µM
[20]
  MIC: 112 µg/mL (≈ 363 µM)
[24]
  MIC: < 3.5 µg/mL
[29]
  MIC: 28 µg/mL (≈ 90.8 µM)
[30]
  IC50: 18 µM
[32]
  MIC: 56 µg/mL (≈ 182 µM)
[36]
  MIC: 7 µg/mL (≈ 22.7 µM)
[40]
  MIC: > 100 µg/mL
[43]
  MIC: 14 µg/mL (≈ 45.4 µM)

## CC1(C)Oc2cc3oc(-c4cc(O)cc(O)c4)cc3cc2CC1O (stereo not drawn) [(+/-)-MORACIN P]
[1]
  MIC: > 100 µg/mL
[3]
  MIC: > 100 µg/mL
[12]
  IC50: 19.3 µM
[16]
  MIC: 100 µg/mL (≈ 306 µM)
[26]
  MIC: 100 µg/mL (≈ 306 µM)
[50]
  IC50: > 30 µM
[30]
  IC50: 19.3 µM
[37]
  MIC: 50 µg/mL (≈ 153 µM)
[40]
  MIC: > 100 µg/mL
[58]
  IC50: 2.9 µM
[47]
  MIC: 100 µg/mL (≈ 306 µM)
